In paper PMC3767936 (Journal of cellular biochemistry, 2010):

Target: T1, 20S proteasome (chymotrypsin-like activity) (Oryctolagus cuniculus, UniProt G1T4Q9)
T1 sequence (G1T4Q9 1-263): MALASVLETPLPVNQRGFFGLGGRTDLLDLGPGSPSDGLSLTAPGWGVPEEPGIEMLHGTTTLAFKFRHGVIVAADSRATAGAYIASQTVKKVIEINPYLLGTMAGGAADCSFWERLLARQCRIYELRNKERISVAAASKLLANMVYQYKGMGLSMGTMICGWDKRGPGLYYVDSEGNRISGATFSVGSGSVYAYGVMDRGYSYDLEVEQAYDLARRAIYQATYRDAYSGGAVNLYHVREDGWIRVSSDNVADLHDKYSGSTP
Assay: fluorogenic Suc-LLVY-AMC hydrolysis by purified […] proteasome, […] h at […]°C
Format: biochemical

Work on CCOC(=O)CN(C)C1=[S+][Au-]([Br])([Br])[S]1 [AUL12, [AuBr2(ESDT)]] yielded an IC50 of 1130 nM.
